Values joined by “and” are separate entries in the source; they are usually repeats but may differ in a detail not shown here. Identical values can stand only once. Active and inactive are the calls of the source.
Assays:
[1] = biological target: Voltage-gated inwardly rectifying potassium channel KCNH2 (Homo sapiens, UniProt Q12809); details: Potency;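 note: confirmatory quantitative high-throughput screen measuring inhibition of hERG channel activity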
Cytochrome P450 1A2 = biological target: T1, Cytochrome P450 1A2 (Homo sapiens, UniProt P05177);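 note: PubChem cytochrome P450 panel assay, CYP1A2 panel member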
T1 sequence (P05177 whole entry): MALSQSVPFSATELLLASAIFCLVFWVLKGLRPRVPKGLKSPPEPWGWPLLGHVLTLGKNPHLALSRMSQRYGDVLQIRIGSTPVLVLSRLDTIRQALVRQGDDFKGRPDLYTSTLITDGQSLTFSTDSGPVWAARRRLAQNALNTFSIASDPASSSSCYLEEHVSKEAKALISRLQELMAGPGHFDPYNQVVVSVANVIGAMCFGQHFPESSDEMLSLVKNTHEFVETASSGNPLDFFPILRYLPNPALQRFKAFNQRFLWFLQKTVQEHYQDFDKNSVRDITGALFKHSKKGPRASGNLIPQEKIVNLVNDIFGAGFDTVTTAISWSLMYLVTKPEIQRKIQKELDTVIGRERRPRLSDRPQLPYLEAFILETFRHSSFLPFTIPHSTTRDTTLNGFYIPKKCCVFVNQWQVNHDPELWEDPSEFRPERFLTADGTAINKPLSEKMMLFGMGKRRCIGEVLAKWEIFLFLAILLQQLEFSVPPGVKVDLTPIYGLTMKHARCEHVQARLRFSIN

CAAX prenyl protease 2 [2] = biological target: T2, CAAX prenyl protease 2 (Saccharomyces cerevisiae S288c, UniProt Q03530); assay type: biochemical
T2 sequence (Q03530 whole entry): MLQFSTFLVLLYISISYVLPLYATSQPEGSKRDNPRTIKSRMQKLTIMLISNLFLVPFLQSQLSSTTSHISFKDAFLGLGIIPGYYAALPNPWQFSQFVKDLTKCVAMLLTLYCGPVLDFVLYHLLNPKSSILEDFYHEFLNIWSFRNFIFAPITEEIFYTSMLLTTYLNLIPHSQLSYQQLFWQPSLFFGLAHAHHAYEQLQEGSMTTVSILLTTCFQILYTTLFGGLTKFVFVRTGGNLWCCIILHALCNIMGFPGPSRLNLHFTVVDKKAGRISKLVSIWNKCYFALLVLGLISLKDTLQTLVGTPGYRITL

Trypsin = Trypsin (Sus scrofa, UniProt P00761); experiment: trypsin protease activity blockade – biochemical, quenched peptide fluorescence, cherry-pick, selectivity assay for Rce1 protease inhibitor project, dose response (AID 488789)
CAAX prenyl protease 2 [3] = biological target: T3, CAAX prenyl protease 2 (Homo sapiens, UniProt Q9Y256); experiment: inhibition of Ras-converting CAAX protease Rce1 – biochemical, yeast membranes, quenched-peptide fluorescence, cherry-pick, dose response (AID 588849)
T3 sequence (Q9Y256 whole entry): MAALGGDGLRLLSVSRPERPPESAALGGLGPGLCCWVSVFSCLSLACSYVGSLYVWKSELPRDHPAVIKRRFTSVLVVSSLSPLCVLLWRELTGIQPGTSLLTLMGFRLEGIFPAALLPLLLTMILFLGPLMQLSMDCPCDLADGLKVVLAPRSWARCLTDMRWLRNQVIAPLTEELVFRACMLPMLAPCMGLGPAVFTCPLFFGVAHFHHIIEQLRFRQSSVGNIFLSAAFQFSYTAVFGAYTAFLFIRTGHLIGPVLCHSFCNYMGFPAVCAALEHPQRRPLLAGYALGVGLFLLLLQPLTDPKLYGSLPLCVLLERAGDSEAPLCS

Mu-type opioid receptor = Mu-type opioid receptor (Homo sapiens, UniProt P35372); assay type: functional, cell-based;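 note: U2OS cells with beta-arrestin recruitment to OPRM1 by beta-gal complementation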
[4] = biological target: 5-hydroxytryptamine receptor 2A (Mus musculus, UniProt P35363); assay type: functional, cell-based;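 note: CHO-K1 cells with tagged receptor and beta-arrestin; agonist potency measured as compound-induced activation of the receptor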
[5] = biological target: T4, Nuclear receptor subfamily 0 group B member 1 (Homo sapiens, UniProt P51843); experiment: Luminescence-based cell-based high throughput dose response assay for inhibitors of the orphan nuclear receptor subfamily 0, group B, member 1 (DAX1; NR0B1). [Related pubchem assays (depositor defined):AID504766, AID504790]; assay type: functional
T4 sequence (P51843 whole entry): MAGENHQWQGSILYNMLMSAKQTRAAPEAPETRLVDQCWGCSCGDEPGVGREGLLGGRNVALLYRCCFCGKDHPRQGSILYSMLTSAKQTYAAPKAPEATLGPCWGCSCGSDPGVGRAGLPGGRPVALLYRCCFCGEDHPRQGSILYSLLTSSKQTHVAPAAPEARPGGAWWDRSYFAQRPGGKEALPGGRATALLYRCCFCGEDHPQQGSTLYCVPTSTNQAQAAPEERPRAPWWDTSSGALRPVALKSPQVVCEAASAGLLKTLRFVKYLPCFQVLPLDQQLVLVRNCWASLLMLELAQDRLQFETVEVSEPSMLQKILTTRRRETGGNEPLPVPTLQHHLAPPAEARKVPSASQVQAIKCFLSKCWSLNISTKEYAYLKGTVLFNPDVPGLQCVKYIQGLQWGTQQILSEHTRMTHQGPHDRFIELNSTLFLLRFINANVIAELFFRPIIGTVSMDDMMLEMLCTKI

HEK293 = experiment: cells; assay type: functional, cell-based; details: Homo sapiens
[6] = biological target: T5, Sentrin-specific protease 8 (Homo sapiens, UniProt Q96LD8); assay type: functional;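 note: luminescence read-out of SENP8 inhibition, dose-response confirmation following an ultra-high-throughput screen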
T5 sequence (Q96LD8 whole entry): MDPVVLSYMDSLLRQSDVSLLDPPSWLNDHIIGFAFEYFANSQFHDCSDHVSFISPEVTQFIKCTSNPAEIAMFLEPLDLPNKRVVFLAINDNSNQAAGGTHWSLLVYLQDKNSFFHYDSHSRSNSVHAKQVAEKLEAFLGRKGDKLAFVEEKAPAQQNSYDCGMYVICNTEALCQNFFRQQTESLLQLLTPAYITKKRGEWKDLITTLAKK

Caspase-3 = biological target: T6, Caspase-3 (Homo sapiens, UniProt P42574); assay type: functional;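 note: Dose-response selectivity test against caspase-3 for candidate inhibitors of sentrin-specific proteases (SENPs)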
T6 sequence (P42574 whole entry): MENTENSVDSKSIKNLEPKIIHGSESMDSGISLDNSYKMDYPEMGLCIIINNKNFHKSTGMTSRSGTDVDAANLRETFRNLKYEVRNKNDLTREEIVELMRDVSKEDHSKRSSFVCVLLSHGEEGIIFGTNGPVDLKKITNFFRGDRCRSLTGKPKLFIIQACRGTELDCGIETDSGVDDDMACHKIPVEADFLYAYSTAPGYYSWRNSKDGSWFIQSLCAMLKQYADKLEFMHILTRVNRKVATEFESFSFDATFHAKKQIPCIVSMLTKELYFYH

[7] = biological target: T7, Sentrin-specific protease 7 (Homo sapiens, UniProt Q9BQF6); assay type: functional;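 note: Luminescence-based dose-response confirmation of ultra-high-throughput screening hits, measuring inhibition of SENP7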
T7 sequence (Q9BQF6 whole entry): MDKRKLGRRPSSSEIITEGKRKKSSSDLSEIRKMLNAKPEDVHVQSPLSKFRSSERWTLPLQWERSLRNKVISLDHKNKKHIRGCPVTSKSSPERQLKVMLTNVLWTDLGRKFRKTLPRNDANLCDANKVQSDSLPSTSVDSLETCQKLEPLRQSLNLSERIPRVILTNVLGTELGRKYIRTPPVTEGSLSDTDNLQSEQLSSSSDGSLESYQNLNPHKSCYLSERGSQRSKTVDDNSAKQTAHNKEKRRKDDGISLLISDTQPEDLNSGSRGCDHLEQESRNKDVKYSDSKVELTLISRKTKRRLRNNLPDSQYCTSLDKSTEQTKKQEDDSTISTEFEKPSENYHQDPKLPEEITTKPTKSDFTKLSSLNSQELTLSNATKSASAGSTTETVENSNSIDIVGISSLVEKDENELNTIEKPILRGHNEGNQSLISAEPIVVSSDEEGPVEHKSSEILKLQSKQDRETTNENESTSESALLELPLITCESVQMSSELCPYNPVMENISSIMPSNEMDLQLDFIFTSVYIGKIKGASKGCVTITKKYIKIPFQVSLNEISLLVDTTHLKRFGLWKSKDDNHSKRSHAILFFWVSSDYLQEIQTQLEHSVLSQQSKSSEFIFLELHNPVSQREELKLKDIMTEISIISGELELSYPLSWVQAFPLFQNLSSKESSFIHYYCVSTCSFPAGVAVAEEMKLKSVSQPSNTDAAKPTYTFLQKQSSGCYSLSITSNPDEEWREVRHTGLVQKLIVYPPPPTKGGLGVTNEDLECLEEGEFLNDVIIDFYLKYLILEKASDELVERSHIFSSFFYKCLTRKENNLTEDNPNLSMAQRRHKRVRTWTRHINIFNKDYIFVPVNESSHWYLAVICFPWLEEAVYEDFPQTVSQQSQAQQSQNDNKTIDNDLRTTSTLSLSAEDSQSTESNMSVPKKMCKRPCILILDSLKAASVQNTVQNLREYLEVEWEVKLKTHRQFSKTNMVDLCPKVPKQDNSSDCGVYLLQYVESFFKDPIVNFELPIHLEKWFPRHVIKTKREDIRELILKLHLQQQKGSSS

[8] = biological target: T8, Sentrin-specific protease 6 (Homo sapiens, UniProt Q9GZR1); assay type: functional;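 note: Luminescence-based dose-response confirmatory assay of SENP6 inhibition, following up an ultra-high-throughput screen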
T8 sequence (Q9GZR1 whole entry): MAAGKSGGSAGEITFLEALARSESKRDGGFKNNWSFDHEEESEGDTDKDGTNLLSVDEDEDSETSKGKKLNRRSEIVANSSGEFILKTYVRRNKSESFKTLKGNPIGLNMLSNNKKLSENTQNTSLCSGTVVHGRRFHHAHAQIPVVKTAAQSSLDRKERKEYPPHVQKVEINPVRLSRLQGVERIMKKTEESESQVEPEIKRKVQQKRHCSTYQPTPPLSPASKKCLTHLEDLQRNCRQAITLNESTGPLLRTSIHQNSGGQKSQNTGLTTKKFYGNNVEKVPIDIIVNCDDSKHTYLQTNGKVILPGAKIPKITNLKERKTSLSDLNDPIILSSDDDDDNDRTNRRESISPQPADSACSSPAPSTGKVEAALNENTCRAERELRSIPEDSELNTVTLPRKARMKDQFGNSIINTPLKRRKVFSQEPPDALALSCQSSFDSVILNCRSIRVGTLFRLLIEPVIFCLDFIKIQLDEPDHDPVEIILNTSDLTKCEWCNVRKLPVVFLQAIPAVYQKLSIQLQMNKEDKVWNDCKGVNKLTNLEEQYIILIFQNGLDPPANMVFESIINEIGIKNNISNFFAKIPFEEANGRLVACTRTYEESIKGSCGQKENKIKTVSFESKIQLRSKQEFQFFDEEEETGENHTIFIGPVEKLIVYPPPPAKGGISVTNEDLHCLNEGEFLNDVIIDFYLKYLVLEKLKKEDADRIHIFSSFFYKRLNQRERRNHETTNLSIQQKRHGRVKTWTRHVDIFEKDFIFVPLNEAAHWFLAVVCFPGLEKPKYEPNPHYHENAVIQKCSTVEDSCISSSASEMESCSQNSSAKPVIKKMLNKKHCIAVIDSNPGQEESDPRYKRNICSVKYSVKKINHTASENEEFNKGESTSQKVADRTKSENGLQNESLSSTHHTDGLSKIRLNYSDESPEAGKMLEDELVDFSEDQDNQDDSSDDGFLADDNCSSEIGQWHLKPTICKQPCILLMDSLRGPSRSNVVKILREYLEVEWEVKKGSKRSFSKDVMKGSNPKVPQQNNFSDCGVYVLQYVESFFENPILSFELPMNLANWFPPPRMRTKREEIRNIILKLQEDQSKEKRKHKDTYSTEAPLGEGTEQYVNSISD

Cytochrome P450 2C19 = Cytochrome P450 2C19 (Homo sapiens, UniProt P33261); experiment: Cytochrome panel assay with activity outcomes. Panel member name: p450-cyp2c19 Compounds with AC50 equal or less than 10 uM are considered active; assay type: functional; details: read-out: AC50
Cytochrome P450 2D6 = Cytochrome P450 2D6 (Homo sapiens, UniProt P10635);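 note: CYP2D6 member of a cytochrome P450 panel assay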
Cytochrome P450 3A4 = Cytochrome P450 3A4 (Homo sapiens, UniProt P08684);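 note: CYP3A4 tested as one member of a cytochrome P450 panel screen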
Cytochrome P450 3A4, sequence (P08684 whole entry): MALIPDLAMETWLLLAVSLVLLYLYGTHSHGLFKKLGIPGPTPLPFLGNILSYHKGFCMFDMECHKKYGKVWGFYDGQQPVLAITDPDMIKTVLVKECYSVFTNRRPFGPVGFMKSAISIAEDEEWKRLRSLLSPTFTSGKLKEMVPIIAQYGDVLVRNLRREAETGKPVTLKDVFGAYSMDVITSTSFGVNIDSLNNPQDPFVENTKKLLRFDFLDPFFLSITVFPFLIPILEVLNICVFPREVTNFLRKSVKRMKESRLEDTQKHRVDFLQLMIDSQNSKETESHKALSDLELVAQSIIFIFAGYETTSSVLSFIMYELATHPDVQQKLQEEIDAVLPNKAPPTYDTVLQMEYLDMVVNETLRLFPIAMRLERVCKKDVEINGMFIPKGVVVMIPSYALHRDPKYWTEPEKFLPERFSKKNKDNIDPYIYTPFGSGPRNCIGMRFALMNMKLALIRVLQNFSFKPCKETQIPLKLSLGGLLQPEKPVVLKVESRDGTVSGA

Voltage-gated inwardly rectifying potassium channel KCNH2, sequence (Q12809 whole entry): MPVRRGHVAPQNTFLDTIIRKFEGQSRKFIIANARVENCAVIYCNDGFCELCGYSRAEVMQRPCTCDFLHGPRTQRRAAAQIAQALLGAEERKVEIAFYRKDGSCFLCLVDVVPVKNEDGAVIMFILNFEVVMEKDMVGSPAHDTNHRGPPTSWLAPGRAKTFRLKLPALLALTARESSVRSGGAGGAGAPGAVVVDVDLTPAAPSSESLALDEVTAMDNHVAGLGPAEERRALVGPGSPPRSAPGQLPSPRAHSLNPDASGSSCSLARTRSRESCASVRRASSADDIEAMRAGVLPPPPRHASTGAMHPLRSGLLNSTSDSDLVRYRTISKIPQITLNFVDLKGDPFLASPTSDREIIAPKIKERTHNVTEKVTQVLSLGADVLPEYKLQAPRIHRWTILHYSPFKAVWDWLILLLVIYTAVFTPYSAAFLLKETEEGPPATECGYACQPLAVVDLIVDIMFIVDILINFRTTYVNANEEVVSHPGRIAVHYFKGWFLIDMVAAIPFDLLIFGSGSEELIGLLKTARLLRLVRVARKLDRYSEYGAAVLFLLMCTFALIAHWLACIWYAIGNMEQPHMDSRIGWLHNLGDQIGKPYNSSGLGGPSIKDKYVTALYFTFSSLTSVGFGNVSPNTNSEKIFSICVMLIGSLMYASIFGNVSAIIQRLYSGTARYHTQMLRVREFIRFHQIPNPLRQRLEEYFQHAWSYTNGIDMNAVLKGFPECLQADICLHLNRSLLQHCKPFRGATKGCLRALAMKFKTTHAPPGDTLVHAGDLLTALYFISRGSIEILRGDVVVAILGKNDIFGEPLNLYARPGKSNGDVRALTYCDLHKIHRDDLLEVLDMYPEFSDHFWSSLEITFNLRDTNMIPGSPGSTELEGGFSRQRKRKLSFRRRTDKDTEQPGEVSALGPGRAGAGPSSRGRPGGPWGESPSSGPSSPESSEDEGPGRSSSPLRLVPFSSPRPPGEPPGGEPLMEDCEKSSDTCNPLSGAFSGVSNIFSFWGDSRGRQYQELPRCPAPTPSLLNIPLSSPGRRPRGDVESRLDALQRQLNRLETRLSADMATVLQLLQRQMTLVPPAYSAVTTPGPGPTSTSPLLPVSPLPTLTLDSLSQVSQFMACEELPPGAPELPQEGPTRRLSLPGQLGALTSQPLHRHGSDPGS
5-hydroxytryptamine receptor 2A, sequence (P35363 whole entry): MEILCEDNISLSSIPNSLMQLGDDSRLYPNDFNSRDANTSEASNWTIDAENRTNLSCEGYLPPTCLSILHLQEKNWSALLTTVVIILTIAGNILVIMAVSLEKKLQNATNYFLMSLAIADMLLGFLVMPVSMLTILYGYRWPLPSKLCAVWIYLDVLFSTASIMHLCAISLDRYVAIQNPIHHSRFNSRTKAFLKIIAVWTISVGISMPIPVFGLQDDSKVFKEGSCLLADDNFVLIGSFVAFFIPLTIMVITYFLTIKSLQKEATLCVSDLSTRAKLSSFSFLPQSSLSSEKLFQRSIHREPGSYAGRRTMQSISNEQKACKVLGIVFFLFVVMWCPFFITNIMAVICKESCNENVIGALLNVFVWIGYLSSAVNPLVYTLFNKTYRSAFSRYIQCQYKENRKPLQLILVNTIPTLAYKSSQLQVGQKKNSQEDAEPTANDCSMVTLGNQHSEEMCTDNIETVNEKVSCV
Cytochrome P450 2C19, sequence (P33261 whole entry): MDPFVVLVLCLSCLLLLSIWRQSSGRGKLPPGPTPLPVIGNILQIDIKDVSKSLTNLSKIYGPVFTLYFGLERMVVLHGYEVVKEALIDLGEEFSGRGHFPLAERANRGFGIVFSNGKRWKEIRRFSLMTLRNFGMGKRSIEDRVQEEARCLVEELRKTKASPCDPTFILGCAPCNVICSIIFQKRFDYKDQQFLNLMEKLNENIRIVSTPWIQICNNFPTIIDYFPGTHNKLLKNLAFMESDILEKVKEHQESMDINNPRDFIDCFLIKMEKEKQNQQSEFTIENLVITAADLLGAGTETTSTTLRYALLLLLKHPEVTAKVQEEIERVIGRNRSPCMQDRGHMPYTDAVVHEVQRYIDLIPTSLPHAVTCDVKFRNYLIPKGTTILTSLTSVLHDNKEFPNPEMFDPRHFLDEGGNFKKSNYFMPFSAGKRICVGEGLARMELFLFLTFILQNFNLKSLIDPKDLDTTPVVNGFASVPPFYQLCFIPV
Trypsin, sequence (P00761 whole entry): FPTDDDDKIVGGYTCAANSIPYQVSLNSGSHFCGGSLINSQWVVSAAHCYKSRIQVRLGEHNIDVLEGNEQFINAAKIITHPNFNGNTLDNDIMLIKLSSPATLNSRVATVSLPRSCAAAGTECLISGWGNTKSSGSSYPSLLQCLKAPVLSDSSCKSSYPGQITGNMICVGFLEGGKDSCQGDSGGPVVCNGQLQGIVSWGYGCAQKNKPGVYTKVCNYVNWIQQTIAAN
Mu-type opioid receptor, sequence (P35372 whole entry): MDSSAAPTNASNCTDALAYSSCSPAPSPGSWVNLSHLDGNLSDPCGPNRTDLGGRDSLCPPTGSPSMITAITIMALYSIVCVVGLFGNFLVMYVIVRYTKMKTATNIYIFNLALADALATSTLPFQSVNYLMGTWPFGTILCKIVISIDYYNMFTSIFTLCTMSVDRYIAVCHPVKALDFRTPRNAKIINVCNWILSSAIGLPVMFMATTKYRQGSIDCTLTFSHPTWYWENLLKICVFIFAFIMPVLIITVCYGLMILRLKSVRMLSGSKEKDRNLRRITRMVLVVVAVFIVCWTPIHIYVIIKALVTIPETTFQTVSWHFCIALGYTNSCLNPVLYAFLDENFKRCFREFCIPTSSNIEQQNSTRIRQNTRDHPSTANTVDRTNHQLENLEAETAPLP
Cytochrome P450 2D6, sequence (P10635 whole entry): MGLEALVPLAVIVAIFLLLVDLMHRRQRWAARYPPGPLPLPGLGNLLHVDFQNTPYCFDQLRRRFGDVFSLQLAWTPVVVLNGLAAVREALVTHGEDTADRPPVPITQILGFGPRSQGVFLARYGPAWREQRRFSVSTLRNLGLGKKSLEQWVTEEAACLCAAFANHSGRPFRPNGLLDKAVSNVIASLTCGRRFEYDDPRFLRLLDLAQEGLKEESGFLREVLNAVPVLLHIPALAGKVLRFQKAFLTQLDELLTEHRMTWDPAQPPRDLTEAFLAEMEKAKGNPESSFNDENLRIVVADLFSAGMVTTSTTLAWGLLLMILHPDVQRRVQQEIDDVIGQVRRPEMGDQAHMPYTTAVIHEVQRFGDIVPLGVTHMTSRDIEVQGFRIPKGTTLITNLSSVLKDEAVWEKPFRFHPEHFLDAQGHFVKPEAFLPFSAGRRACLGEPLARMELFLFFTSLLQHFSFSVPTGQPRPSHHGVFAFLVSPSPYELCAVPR

In the case of O=C(Nc1cc(C(=O)Nc2ccc(S(=O)(=O)O)cc2S(=O)(=O)O)cc(C(=O)Nc2ccc(S(=O)(=O)O)cc2S(=O)(=O)O)c1)Nc1cc(C(=O)Nc2ccc(S(=O)(=O)O)cc2S(=O)(=O)O)cc(C(=O)Nc2ccc(S(=O)(=O)O)cc2S(=O)(=O)O)c1, the AC50 [1] is reported as 35.5 µM (inconclusive) and the AC50 (Cytochrome P450 1A2) is reported as 31.6 µM (inconclusive) and 39.8 µM (inconclusive).

CC1(C(=O)N(CC(=O)NC2CCCC2)Cc2ccco2)CC(=O)N=C2C=CC=CN21 (stereo unspecified) was tested, and the AC50 (CAAX prenyl protease 2 [2]) was 4.64 µM (active), the AC50 (Trypsin) was 4.21 µM (active) and the AC50 (CAAX prenyl protease 2 [3]) was 3.19 µM (active).

CC1=NN=C(c2ccc(N)cc2)c2cc3c(cc2C1)OCO3 was tested, and the EC50 (Mu-type opioid receptor) was 92.5 µM (inactive), the AC50 [1] was 35.5 µM (inconclusive) and the EC50 [4] was 76.1 µM (inactive).

For CCOC(=O)c1ccc2[nH]c3ccccc3c2c1, the IC50 [5] was > 67.5 µM (inactive) and the IC50 (HEK293) was > 67.5 µM (inactive).

With Cc1ccc(NC(=O)c2cccc3cccnc23)cc1 the IC50 [6] was 24.3 µM (active), the IC50 (Caspase-3) was 32.5 µM (active) and the IC50 [7] was 8.6 µM (active). The IC50 [8] was 31.3 µM (active).

In the case of Cc1nc2cc(NC(=O)c3ccc(Br)s3)ccc2s1, the IC50 [6] is reported as > 100 µM (inactive), the IC50 (Caspase-3) is reported as 19.7 µM (active) and the IC50 [7] is reported as 4.08 µM (active). The IC50 [8] was > 100 µM (inactive).

CC1Cc2ccccc2N1C(=O)CSCC(=O)O (stereo unspecified) was tested, and the AC50 (Cytochrome P450 1A2) was 20 µM (inconclusive), the AC50 (Cytochrome P450 2C19) was 11.2 µM (inconclusive) and the AC50 (Cytochrome P450 2D6) was “inconclusive”.

For C=CCOC(=O)C1=C(C)OC(N)=C(C#N)C1c1ccco1 (stereo unspecified), the IC50 [5] was > 67.5 µM (inactive) and the IC50 (HEK293) was > 67.5 µM (inactive).

With Cc1ccc(/N=C/c2c(O)oc3ccccc3c2=O)c(C)c1 the IC50 [6] was > 100 µM (inactive), the IC50 (Caspase-3) was 95 µM (active) and the IC50 [7] was > 100 µM (inactive). For the same compound, the IC50 [8] was > 100 µM (inactive).

Nc1ncnc2c1ncn2C1C=C(CO)C(O)C1O (stereo unspecified) was tested, and the IC50 [5] was > 67.7 µM (inactive) and the IC50 (HEK293) was > 2.51 µM (active).

C[C@H](O)C(=O)C1=Nc2c(nc(N)[nH]c2=O)NC1 [SEPIAPTERIN] was tested, and the AC50 [1] was 28.2 µM (inconclusive) and the AC50 (Cytochrome P450 3A4) was 0.316 µM (inconclusive).

Source: ChEMBL document CHEMBL1201862, “PubChem BioAssay data set” (2004)
